Laboratory results from the NIST ThermoML archive (doi:10.1021/je900974u).
± gives the expanded uncertainty stated by the source.

Experiment: molar heat capacity at constant pressure
Conditions: 101.33 kPa, Liquid, Vacuum adiabatic calorimetry

CCOS(=O)(=O)[O-].CCn1cc[n+](C)c1 [1-ethyl-3-methylimidazolium ethyl sulfate]
Conditions	molar heat capacity at constant pressure [J/K/mol]
191.13 K	354.4 ± 0.6
193.05 K	354.6 ± 0.6
194.98 K	354.9 ± 0.6
196.91 K	355.1 ± 0.6
198.84 K	355.3 ± 0.6
200.77 K	355.7 ± 0.6
202.71 K	355.9 ± 0.6
204.64 K	356.3 ± 0.6
206.57 K	356.6 ± 0.6
208.5 K	356.9 ± 0.6
210.44 K	357.2 ± 0.6
212.37 K	357.5 ± 0.6
214.3 K	357.9 ± 0.6
216.24 K	358.3 ± 0.6
218.18 K	358.7 ± 0.6
220.11 K	359.2 ± 0.6
222.05 K	359.6 ± 0.6
223.98 K	360.1 ± 0.6
225.92 K	360.4 ± 0.6
227.86 K	360.9 ± 0.6
229.8 K	361.4 ± 0.6
231.74 K	362.1 ± 0.6
233.68 K	362.5 ± 0.6
235.62 K	363 ± 0.6
237.56 K	363.5 ± 0.6
239.5 K	364 ± 0.6
241.43 K	364.6 ± 0.6
243.37 K	365.1 ± 0.6
245.32 K	365.6 ± 0.6
247.26 K	366.2 ± 0.6
249.2 K	366.8 ± 0.6
251.14 K	367.4 ± 0.6
253.08 K	367.9 ± 0.6
255.02 K	368.5 ± 0.6
256.96 K	369.1 ± 0.6
258.9 K	369.9 ± 0.6
260.85 K	370.3 ± 0.6
262.79 K	371 ± 0.6
264.73 K	371.7 ± 0.6
266.67 K	372.1 ± 0.6
268.62 K	372.7 ± 0.6
270.55 K	373.4 ± 0.6
272.5 K	374.1 ± 0.6
274.44 K	374.8 ± 0.6
276.38 K	375.1 ± 0.6
278.32 K	375.6 ± 0.6
280.25 K	376.5 ± 0.6
282.2 K	377 ± 0.6
284.14 K	377.6 ± 0.6
286.08 K	378.2 ± 0.6
288.03 K	378.7 ± 0.6
289.97 K	379.4 ± 0.6
291.91 K	380.2 ± 0.6
293.85 K	381 ± 0.6
295.79 K	381.9 ± 0.6
297.74 K	382.6 ± 0.6
299.68 K	383.5 ± 0.6
301.62 K	384.2 ± 0.6
303.56 K	385 ± 0.6
305.51 K	385.9 ± 0.6
307.45 K	386.7 ± 0.6
309.39 K	387.5 ± 0.6
311.33 K	388.6 ± 0.6
313.28 K	389.5 ± 0.6
315.22 K	390.4 ± 0.6
317.16 K	391.4 ± 0.6
319.11 K	392.2 ± 0.6
321.05 K	393.2 ± 0.6
322.99 K	394 ± 0.6
324.93 K	395 ± 0.6
326.88 K	395.9 ± 0.6
328.82 K	396.9 ± 0.6
330.77 K	397.7 ± 0.6
332.71 K	398.5 ± 0.6
334.66 K	399.7 ± 0.6
336.6 K	400.5 ± 0.6
338.54 K	401.4 ± 0.6
340.49 K	402.7 ± 0.6
342.43 K	403.5 ± 0.6
344.38 K	404.4 ± 0.6
346.32 K	405.7 ± 0.6
348.27 K	406.7 ± 0.6
350.21 K	407.8 ± 0.6
352.15 K	408.8 ± 0.6
354.1 K	409.7 ± 0.6
356.04 K	410.8 ± 0.6
357.98 K	411.9 ± 0.6
359.92 K	412.8 ± 0.6
361.86 K	413.9 ± 0.6
363.8 K	414.9 ± 0.6
365.75 K	415.9 ± 0.6
367.69 K	416.8 ± 0.6
